From patent publication US11814367B2, “Inhibitors of glycogen synthase 1 (GYS1) and methods of use thereof” (Maze Therapeutics, Inc., priority 2021, dated 2023)
pIC50: −log10 of the molar value.

Columns and labels:
[1] = system: hGYS1 enzyme / glycogen synthesis in HeLa cells; assay: GYS1 cell based assay (glycogen synthesis, Glucose-glo); design: species or system human; settings: Homo sapiens, HeLa, 24 h, 24 h incubation, 20 mM glucose, geometric mean of at least 2 runs
Method in brief: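 HeLa cells starved 24 h in medium containing only 1× Glutamax were plated onto compound in medium with 20 mM glucose (1% DMSO final) for 24 h, 37 °C, 5% CO2. Acid lysates were Tris-quenched, glucoamylase-digested (pH 5.3, 1 h, 37 °C) and read by Glucose-glo luminescence. IC50 came from Hill fits, as geometric mean of ≥2 runs.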

[2] = biological target: hGYS1 enzyme (recombinant hGYS1/GN1 protein) (Homo sapiens (Human), UniProt P13807); assay: GYS1 coupled enzyme assay (PK/LDH); type: biochemical; settings: hGYS1/GN1 50 nM, UDP-Glucose 0.8 mM, G6P 1 mM; geometric mean of at least 2 runs
Chain of hGYS1 enzyme (recombinant hGYS1/GN1 protein) (P13807 whole entry): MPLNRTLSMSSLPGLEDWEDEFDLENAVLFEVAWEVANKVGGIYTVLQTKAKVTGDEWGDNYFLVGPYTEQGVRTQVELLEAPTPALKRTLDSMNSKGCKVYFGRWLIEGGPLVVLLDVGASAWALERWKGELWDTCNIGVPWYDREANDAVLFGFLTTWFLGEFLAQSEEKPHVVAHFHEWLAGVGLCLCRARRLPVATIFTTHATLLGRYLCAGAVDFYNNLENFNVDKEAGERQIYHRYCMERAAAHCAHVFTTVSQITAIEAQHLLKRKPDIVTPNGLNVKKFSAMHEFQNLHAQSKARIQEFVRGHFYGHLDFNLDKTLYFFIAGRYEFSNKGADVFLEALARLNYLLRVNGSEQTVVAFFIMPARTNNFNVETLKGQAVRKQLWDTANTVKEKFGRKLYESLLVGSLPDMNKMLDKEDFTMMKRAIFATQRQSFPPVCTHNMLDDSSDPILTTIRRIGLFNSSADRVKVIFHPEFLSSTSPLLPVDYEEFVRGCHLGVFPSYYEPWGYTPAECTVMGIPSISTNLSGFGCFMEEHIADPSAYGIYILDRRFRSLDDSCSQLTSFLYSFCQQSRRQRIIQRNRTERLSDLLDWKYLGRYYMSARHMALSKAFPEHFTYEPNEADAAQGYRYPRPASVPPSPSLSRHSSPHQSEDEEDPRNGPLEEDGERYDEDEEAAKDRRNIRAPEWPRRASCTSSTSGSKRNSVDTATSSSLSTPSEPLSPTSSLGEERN
Chain of hGYS1 enzyme (recombinant hGYS1/GN1 protein) (P46976 whole entry partner): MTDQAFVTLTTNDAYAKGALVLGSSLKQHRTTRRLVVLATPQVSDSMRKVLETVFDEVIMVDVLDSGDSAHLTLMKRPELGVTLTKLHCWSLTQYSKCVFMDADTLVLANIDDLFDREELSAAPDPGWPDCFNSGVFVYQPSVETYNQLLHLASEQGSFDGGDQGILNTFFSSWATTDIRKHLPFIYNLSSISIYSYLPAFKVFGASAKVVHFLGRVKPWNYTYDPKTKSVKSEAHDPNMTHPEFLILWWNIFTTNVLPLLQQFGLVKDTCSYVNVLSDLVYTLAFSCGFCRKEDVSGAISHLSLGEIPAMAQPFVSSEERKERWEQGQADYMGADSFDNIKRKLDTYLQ

[3] = biological target: hGYS2 enzyme (recombinant hGYS2/GN1 protein) (Homo sapiens (Human), UniProt P54840); assay: GYS2 coupled enzyme assay (PK/LDH); type: biochemical; settings: geometric mean of at least 2 assay runs on separate days, read-out: Avg_IC50
Chain of hGYS2 enzyme (recombinant hGYS2/GN1 protein) (P54840 whole entry): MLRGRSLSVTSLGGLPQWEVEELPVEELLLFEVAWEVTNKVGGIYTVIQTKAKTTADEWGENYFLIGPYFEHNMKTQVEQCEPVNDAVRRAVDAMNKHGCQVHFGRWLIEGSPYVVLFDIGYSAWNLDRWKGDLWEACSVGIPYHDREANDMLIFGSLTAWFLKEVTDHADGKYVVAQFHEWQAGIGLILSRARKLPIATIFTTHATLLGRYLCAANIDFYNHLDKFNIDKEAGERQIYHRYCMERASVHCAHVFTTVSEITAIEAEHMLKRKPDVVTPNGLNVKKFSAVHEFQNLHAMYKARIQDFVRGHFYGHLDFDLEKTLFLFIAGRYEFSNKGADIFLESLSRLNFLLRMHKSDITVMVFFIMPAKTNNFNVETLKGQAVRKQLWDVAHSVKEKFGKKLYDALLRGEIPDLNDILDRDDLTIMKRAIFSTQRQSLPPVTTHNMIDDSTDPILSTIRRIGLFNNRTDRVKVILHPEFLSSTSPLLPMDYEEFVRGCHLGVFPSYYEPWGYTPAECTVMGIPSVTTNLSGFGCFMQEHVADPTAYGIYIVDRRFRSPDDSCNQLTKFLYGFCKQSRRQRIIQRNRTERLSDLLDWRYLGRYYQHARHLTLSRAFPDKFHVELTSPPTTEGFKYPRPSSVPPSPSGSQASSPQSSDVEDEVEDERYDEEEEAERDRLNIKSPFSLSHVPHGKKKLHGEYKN
Chain of hGYS2 enzyme (recombinant hGYS2/GN1 protein) (P46976 whole entry partner): as the sequence (P46976 whole entry partner) above
Method in brief: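 Recombinant hGYS2/GN1 (200 nM) with 2 mM UDP-glucose, 0.2% rabbit liver glycogen, 2 mM glucose-6-phosphate; UDP coupled via PK/LDH (2 mM PEP, 0.6 mM NADH). Buffer 50 mM Tris pH 7.5, 2 mM MgCl2, 100 mM KCl, 2.5% DMSO. A340 slope over 10 min; IC50 from Hill fit of duplicates.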

Row | pIC50 [1] | pIC50 [2] | pIC50 [3] | Structure (SMILES)
1 | 6.54 | 8.00 | < 4.00 | Cc1coc(CC(=O)N2C[C@H](F)C[C@H]2C(=O)N[C@@H](c2ccccc2)c2ccc(C(C)C)c(F)n2)n1 [Compound 409, (2S,4R)-4-fluoro-N-[(S)-[6-fluoro-5-(propan-2-yl)pyridin-2-yl](phenyl)methyl]-1-[2-(4-methyl-1,3-oxazol-2-yl)acetyl] pyrrolidine-2-carboxamide]
2 | 6.40 | 7.52 | < 4.00 | CC(C)c1ccc([C@@H](NC(=O)[C@@H]2C[C@@H](F)CN2C(=O)Cc2ccncc2)c2ccccc2)cc1F [Compound 347, (2S,4R)-4-fluoro-N-[(S)-[3-fluoro-4-(propan-2-yl)phenyl](phenyl)methyl]-1-[2-(pyridin-4-yl)acetyl]pyrrolidine-2-carboxamide]
3 | 5.82 | 7.44 | < 4.00 | Cn1nc(CC(=O)N2C[C@H](F)C[C@H]2C(=O)N[C@@H](c2ccccc2)c2ccc(C3CC3)c(F)n2)[nH]c1=O [Compound 303, (2S,4R)-N-[(S)-(5-cyclopropyl-6-fluoropyridin-2-yl)(phenyl)methyl]-4-fluoro-1-[2-(1-methyl-5-oxo-4,5-dihydro-1H-1,2,4-triazol-3-yl)acetyl]pyrrolidine-2-carboxamide]
4 | 7.22 | 8.52 | 4.10 | CCN(CC)c1cnn(CC(=O)N2C[C@H](F)C[C@H]2C(=O)N[C@@H](c2ccccc2)c2ccc(C(C)C)c(F)n2)n1 [Compound 414]
5 | 5.94 | 7.10 | < 4.00 | CC(C)c1ccc([C@@H](NC(=O)[C@@H]2C[C@@H](F)CN2C(=O)Cc2nnc(CN(C)C)o2)c2ccccc2)cc1 [Compound 242, (2S,4R)-1-(2-{5-[(dimethylamino)methyl]-1,3,4-oxadiazol-2-yl}acetyl)-4-fluoro-N-[(S)-phenyl[4-(propan-2-yl)phenyl]methyl]pyrrolidine-2-carboxamide]
6 | 4.97 | 5.82 | < 4.00 | CCn1c(=O)c(C)cn(CC(=O)N2C[C@H](F)C[C@H]2C(=O)N[C@H](c2ccccc2)c2ccc(C3CC(F)(F)C3)c(F)n2)c1=O [Compound 518, (2S,4R)-N-[(R)-[5-(3,3-difluorocyclobutyl)-6-fluoropyridin-2-yl](phenyl)methyl]-1-[2-(3-ethyl-5-methyl-2,4-dioxo-1,2,3,4-tetrahydropyrimidin-1-yl)acetyl]-4-fluoropyrrolidine-2-carboxamide]
7 | 6.03 | 7.12 | < 4.00 | CC1(c2ccc([C@@H](NC(=O)[C@@H]3C[C@@H](F)CN3C(=O)Cc3n[nH]c4ccccc34)c3ccccc3)cc2F)CC1 [Compound 571, (2S,4R)-4-fluoro-N-[(S)-[3-fluoro-4-(1-methylcyclopropyl)phenyl](phenyl)methyl]-1-[2-(1H-indazol-3-yl)acetyl]pyrrolidine-2-carboxamide]
8 | 6.24 | 8.22 | < 4.11 | CC(C)c1ccc([C@@H](NC(=O)[C@@H]2C[C@@H](F)CN2C(=O)Cn2cc(N3CCNCC3)nn2)c2ccccc2)cc1F [Compound 375, (2S,4R)-4-fluoro-N-[(S)-[3-fluoro-4-(propan-2-yl)phenyl](phenyl)methyl]-1-{2-[4-(piperazin-1-yl)-1H-1,2,3-triazol-1-yl]acetyl}pyrrolidine-2-carboxamide]
9 | 6.01 | 7.26 | < 4.00 | O=C(N[C@@H](c1ccccc1)c1ccc(C2CC2)c(F)n1)[C@@H]1C[C@@H](F)CN1C(=O)CNc1ncco1 [Compound 309, (2S,4R)-N-[(S)-(5-cyclopropyl-6-fluoropyridin-2-yl)(phenyl)methyl]-4-fluoro-1-{2-[(1,3-oxazol-2-yl)amino]acetyl}pyrrolidine-2-carboxamide]
